According to PMC6469291, “2-Nitroimidazole-Furanoside Derivatives for Hypoxia Imaging—Investigation of Nucleoside Transporter Interaction, ^18F-Labeling and Preclinical PET Imaging” (Pharmaceuticals, 2019):

Legend:
Assay type in all cases: cell-based
Conditions in all cases: inhibition of 1 µmol/L [^3H]uridine transport, yeast, 0–3 mM test compound, mean ± SE, n = 2–3; NI = no interaction
hENT1 (SLC29A1) = molecular target: T1, hENT1 (SLC29A1) (Homo sapiens, UniProt Q99808); experiment: Inhibition of [^3H]uridine uptake in yeast cells producing recombinant hENT1
T1 construct: expressed in transfected cells; host or cells: Saccharomyces cerevisiae
T1 sequence (Q99808 1-456): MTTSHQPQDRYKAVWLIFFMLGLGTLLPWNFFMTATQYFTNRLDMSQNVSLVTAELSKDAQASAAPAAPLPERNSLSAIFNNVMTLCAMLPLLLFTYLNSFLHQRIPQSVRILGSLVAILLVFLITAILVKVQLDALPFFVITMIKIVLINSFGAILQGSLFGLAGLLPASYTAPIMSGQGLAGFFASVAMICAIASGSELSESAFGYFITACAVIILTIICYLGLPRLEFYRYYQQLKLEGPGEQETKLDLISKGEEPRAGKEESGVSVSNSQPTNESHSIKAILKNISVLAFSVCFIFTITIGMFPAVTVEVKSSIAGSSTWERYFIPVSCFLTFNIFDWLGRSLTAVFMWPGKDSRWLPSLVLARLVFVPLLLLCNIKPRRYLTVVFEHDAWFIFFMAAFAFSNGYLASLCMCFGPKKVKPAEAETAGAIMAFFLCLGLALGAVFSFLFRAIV
Protocol: (§1) The interaction of 2-nitroimidazole sugars with nucleoside transporters was determined by ability of the 2-nitroimidazole sugars to inhibit [^3H]uridine uptake in yeast cells producing recombinant human nucleoside transporters and results expressed as IC50 values.
(§2) Saccharomyces cerevisiae yeast was separately transformed with plasmids (pYPhENT1, pYPhENT2, pYPhCNT1, pYPhCNT2, or pYPhCNT3) encoding hNTs (hENT1, hENT2, hCNT1, hCNT2, or hCNT3, respectively) as described elsewhere. Uptake of 1 µmol/L [^3H]uridine (Moravek Biochemicals) into yeast was measured as previously described using a semi-automated cell harvester (Micro96 HARVESTER; Skatron Instruments, Tranby, Norway). Yeast was incubated at room temperature with 1 µmol/L [^3H]uridine in yeast growth media (pH 7.4) in the presence or absence (uninhibited controls) of graded concentrations (0–3 mM) of test compounds. The following compounds were used for transporter experiments: FAZA, β-FAZA, α-FAZDR, β-FAZDR. Uridine self-inhibition was used to determine maximum inhibition of mediated transport. Concentration–effect curves were subjected to nonlinear regression analysis using Prism software (version 4.03; GraphPad Software Inc.) to obtain the concentration of test compound that inhibited uridine uptake by 50%, relative to that of untreated cells (IC50 values). Each IC50 value determination was conducted with nine concentrations and four replicates per concentration and experiments were repeated two to three times.

hCNT3 (SLC28A3) = molecular target: T2, hCNT3 (SLC28A3) (Homo sapiens, UniProt Q9HAS3); experiment: Inhibition of [^3H]uridine uptake in yeast cells producing recombinant hCNT3
T2 construct: expressed in transfected cells; host or cells: Saccharomyces cerevisiae
T2 sequence (Q9HAS3 1-691): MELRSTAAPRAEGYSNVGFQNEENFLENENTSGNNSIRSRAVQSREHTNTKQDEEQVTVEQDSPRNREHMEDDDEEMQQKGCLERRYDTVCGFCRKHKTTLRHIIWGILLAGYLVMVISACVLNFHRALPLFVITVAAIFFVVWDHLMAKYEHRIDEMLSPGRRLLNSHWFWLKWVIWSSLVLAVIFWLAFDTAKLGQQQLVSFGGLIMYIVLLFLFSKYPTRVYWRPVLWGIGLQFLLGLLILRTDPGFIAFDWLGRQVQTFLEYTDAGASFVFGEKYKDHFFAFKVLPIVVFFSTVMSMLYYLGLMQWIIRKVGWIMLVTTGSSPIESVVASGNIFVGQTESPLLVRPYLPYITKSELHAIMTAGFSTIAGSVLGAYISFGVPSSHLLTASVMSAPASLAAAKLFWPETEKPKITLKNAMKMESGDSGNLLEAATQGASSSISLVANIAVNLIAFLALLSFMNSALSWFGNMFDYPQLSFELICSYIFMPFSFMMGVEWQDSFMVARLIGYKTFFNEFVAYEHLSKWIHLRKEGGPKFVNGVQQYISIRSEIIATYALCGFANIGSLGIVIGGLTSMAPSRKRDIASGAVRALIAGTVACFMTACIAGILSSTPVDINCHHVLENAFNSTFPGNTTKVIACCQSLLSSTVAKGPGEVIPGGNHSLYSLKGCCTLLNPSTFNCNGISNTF
Protocol: as §1, §2

hCNT2 (SLC28A2) = molecular target: T3, hCNT2 (SLC28A2) (Homo sapiens, UniProt O43868); experiment: Inhibition of [^3H]uridine uptake in yeast cells producing recombinant hCNT2
T3 construct: expressed in transfected cells; host or cells: Saccharomyces cerevisiae
T3 sequence (O43868 1-658): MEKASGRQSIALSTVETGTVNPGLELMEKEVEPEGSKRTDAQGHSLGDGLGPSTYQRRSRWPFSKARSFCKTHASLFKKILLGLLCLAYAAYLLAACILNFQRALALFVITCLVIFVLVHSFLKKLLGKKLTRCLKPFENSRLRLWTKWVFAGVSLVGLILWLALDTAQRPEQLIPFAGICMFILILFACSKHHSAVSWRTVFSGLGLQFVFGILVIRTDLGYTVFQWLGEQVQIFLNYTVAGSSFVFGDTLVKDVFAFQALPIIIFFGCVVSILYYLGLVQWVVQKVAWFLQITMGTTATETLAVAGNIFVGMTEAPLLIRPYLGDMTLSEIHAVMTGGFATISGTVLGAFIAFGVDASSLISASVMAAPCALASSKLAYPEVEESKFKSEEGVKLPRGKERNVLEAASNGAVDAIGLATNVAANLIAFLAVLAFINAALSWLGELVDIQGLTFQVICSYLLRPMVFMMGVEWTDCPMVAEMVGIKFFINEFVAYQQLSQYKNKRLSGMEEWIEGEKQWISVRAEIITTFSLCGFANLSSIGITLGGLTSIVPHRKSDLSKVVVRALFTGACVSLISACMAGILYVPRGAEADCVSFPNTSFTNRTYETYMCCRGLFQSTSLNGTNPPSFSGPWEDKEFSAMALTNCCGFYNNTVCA
Protocol: as §1, §2

hENT2 (SLC29A2) = molecular target: T4, hENT2 (SLC29A2) (Homo sapiens, UniProt Q14542); experiment: Inhibition of [^3H]uridine uptake in yeast cells producing recombinant hENT2
T4 construct: expressed in transfected cells; host or cells: Saccharomyces cerevisiae
T4 sequence (Q14542 1-456): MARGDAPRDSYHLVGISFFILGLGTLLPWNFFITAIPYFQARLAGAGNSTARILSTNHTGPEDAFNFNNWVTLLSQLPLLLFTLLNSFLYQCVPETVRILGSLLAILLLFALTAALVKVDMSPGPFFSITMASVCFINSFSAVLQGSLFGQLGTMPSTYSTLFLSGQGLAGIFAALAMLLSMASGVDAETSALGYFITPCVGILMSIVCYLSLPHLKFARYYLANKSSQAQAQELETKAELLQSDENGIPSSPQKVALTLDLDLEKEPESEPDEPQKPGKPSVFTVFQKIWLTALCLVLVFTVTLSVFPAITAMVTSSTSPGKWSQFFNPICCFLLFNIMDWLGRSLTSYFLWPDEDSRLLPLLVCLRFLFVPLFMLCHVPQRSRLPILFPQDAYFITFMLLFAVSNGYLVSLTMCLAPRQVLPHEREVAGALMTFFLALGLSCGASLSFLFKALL
Protocol: as §1, §2

hCNT1 (SLC28A1) = molecular target: T5, hCNT1 (SLC28A1) (Homo sapiens, UniProt O00337); experiment: Inhibition of [^3H]uridine uptake in yeast cells producing recombinant hCNT1
T5 construct: expressed in transfected cells; host or cells: Saccharomyces cerevisiae
T5 sequence (O00337 1-649): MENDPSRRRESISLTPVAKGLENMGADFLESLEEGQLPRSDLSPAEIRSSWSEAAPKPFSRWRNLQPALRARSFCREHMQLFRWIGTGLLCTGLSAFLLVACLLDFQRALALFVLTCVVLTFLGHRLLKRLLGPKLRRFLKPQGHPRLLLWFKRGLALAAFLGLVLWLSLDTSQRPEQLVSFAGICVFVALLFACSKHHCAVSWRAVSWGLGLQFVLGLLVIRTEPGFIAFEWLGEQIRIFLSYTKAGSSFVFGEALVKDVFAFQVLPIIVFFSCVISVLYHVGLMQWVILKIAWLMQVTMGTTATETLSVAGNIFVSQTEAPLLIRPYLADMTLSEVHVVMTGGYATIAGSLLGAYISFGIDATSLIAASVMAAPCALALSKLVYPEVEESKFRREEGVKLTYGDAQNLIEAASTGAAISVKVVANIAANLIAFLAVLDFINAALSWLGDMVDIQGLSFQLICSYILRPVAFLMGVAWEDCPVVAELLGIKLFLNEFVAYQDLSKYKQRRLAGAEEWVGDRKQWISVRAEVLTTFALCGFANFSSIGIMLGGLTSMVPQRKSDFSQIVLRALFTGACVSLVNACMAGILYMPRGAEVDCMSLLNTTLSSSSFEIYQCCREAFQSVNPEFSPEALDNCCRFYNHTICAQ
Protocol: as §1, §2

O=[N+]([O-])c1nccn1C1CC(O)C(CF)O1 (stereo not drawn) [α-FAZDR]
> 3 mM: IC50 (hENT1 (SLC29A1)) | IC50 (hCNT3 (SLC28A3)) | IC50 (hCNT2 (SLC28A2)) | IC50 (hENT2 (SLC29A2)) | IC50 (hCNT1 (SLC28A1))
no interaction: IC50 hENT1 (SLC29A1) (hENT1 (SLC29A1)) | IC50 hCNT3 (SLC28A3) (hCNT3 (SLC28A3)) | IC50 hCNT2 (SLC28A2) (hCNT2 (SLC28A2)) | IC50 hENT2 (SLC29A2) (hENT2 (SLC29A2)) | IC50 hCNT1 (SLC28A1) (hCNT1 (SLC28A1))
